According to patent US20250345392A1, “ANNEXIN A1 LIQUID PHARMACEUTICAL COMPOSITION” (ResoTher Pharma A/S, priority 2022, published 2025):
Ends that are not written are not given here.

Key:
[1] = PK after single intravenous injection of Peptide 1 in male rats; set-up: species or system male Wistar (CRL: WI(Han)) rats; conditions: rat, in vivo; for clearance / half-life / Vd: iv
Experimental: (§1) Peptide 1 in blood samples collected from animals used in the studies (rat and dog) has been measured by an LC-MS/MS method. Analysis of samples collected in the pharmacokinetic study in rats was performed prior to validation of the method. Prior to analysis of samples from the GLP toxicology studies, the method was validated according to GLP to ensure that it is selective, accurate, reproducible, and able to produce reliable results. The method was validated over the range from 0.075 to 25 μg/mL Peptide 1.
The objective of the study was to assess the pharmacokinetic profile of Peptide 1 when administered once by intravenous injection to male Wistar (CRL: WI(Han)) rats at 0.1, 1.0 and 10.0 mg/kg. The number of rats per group was respectively 6, 6 and 8. Blood samples were collected from 3 animals per group at 2, 5, 10, 20, 40 and 60 minutes after dosing; for the animals receiving 10.0 mg/kg, additional samples were taken from 2 animals at 90 and 120 minutes after dosing. The pharmacokinetics were characterised using mean plasma concentration vs. time data. The pharmacokinetic parameters were estimated using Phoenix WinNonlin Version 6.3 pharmacokinetic software.
[…] 26 plasma samples (samples in Group 1 (0.1 mg/kg) obtained 2 minutes post dosing, in Group 2 (1 mg/kg) 2 to 10 minutes post dosing and in Group 3 (10 mg/kg) 2 to 40 minutes post dosing) had concentrations of Peptide 1 above the upper limit of quantification for the bioanalytical method. As a consequence, plasma concentration of Peptide 1 was extrapolated. Plasma samples obtained 60 minutes post dosing in Group 1 had plasma concentration of Peptide 1 below the limit of quantification.

[2] = 14-day repeat dose IV toxicity study with toxicokinetic evaluation on Day 1 and Day 14 in rats; assay type: in vivo, Wistar rats; conditions: rat; for C0 / AUC(0-inf) / half-life / clearance / Vd: in vivo
Experimental: as §1
In the 14-day intravenous toxicity study in Wistar rats (see study description below), samples were collected from 3 male and 3 female animals per group dosed at 0 (Control), 1, 3 or 10 mg/kg/day at 2, 5, 10, 20 and 40 minutes after dosing on Days 1 and 14. Samples were analysed for levels of Peptide 1.

[3] = single IV 0.1 mg/kg, initial elimination phase
[4] = single IV 1.0 mg/kg, initial elimination phase
[5] = single IV 10 mg/kg, initial elimination phase
[6] = iv, 1 mg/kg/day, IV 1.0 mg/kg/day, female, Day 1
[7] = iv, 1 mg/kg/day, IV 1.0 mg/kg/day, female, Day 14

clearance ([1]; 0.1 mg/kg, single IV 0.1 mg/kg, initial elimination phase, read-out: CL): 10 mL/min/kg
half-life ([1]; 0.1 mg/kg, single IV 0.1 mg/kg, initial elimination phase, read-out: T½): 3.49 min
Vd ([1]; 0.1 mg/kg, single IV 0.1 mg/kg, initial elimination phase, read-out: Vz): 0.0505 L/kg
clearance ([1]; 0.1 mg/kg, single IV 0.1 mg/kg, terminal elimination phase, read-out: CL): 9.66 mL/min/kg
half-life ([1]; 0.1 mg/kg, single IV 0.1 mg/kg, terminal elimination phase, read-out: T½): 18.8 min
Vd ([1]; 0.1 mg/kg, single IV 0.1 mg/kg, terminal elimination phase, read-out: Vz): 0.261 L/kg
clearance ([1]; 1 mg/kg, single IV 1.0 mg/kg, initial elimination phase, read-out: CL): 8.08 mL/min/kg
half-life ([1]; 1 mg/kg, single IV 1.0 mg/kg, initial elimination phase, read-out: T½): 3.34 min
Vd ([1]; 1 mg/kg, single IV 1.0 mg/kg, initial elimination phase, read-out: Vz): 0.0389 L/kg
clearance ([1]; 1 mg/kg, single IV 1.0 mg/kg, terminal elimination phase, read-out: CL): 8.05 mL/min/kg
half-life ([1]; 1 mg/kg, single IV 1.0 mg/kg, terminal elimination phase, read-out: T½): 10 min
Vd ([1]; 1 mg/kg, single IV 1.0 mg/kg, terminal elimination phase, read-out: Vz): 0.116 L/kg
clearance ([1]; 10 mg/kg, single IV 10 mg/kg, initial elimination phase, read-out: CL): 11.1 mL/min/kg
half-life ([1]; 10 mg/kg, single IV 10 mg/kg, initial elimination phase, read-out: T½): 7.64 min
Vd ([1]; 10 mg/kg, single IV 10 mg/kg, initial elimination phase, read-out: Vz): 0.122 L/kg
clearance ([1]; 10 mg/kg, single IV 10 mg/kg, terminal elimination phase, read-out: CL): 11.1 mL/min/kg
half-life ([1]; 10 mg/kg, single IV 10 mg/kg, terminal elimination phase, read-out: T½): 10.2 min
Vd ([1]; 10 mg/kg, single IV 10 mg/kg, terminal elimination phase, read-out: Vz): 0.162 L/kg
clearance ([1]; single IV, both phases, range over 0.1-10 mg/kg, read-out: clearance): 8 to 11 mL/min/kg
half-life ([1]; single IV, initial phase, range over 0.1-10 mg/kg, read-out: half-life): 3 to 8 min
Vd ([1]; single IV, initial phase, range over 0.1-10 mg/kg, read-out: volume of distribution): 0.039 to 0.122 L/kg
half-life ([1]; single IV, terminal elimination phase, range over 0.1-10 mg/kg, read-out: half-life): 10 to 19 min
Vd ([1]; single IV, terminal phase, range over 0.1-10 mg/kg, read-out: volume of distribution): 0.116 to 0.261 L/kg
AUC(0-t) [1, 3]: 165 ng·h/mL
C0 [1, 3]: 1790 ng/mL
AUC(0-inf) ([1]; single IV 0.1 mg/kg, terminal elimination phase): 173 ng·h/mL
AUC(0-t) [1, 4]: 2070 ng·h/mL
C0 [1, 4]: 32500 ng/mL
AUC(0-inf) ([1]; single IV 1.0 mg/kg, terminal elimination phase): 2070 ng·h/mL
AUC(0-t) [1, 5]: 14800 ng·h/mL
C0 [1, 5]: 68900 ng/mL
AUC(0-inf) ([1]; single IV 10 mg/kg, terminal elimination phase): 15000 ng·h/mL
Substance: AMVSEFLKQAWFIENEEQEYVQTLKSSKGGPGSAVSPYPTFNPSSDV-NH2 [Peptide 1]
exposure (C(0) and AUCinf) versus dose ([2]; from 1 mg/kg to 10 mg/kg): increase proportional to dose level
C0 ([2]; 1 mg/kg, Group 2 (1 mg/kg), range over sexes and Days 1 and 14): 9960 to 11900 ng/mL
AUC(0-inf) ([2]; 1 mg/kg, Group 2 (1 mg/kg), range over sexes and Days 1 and 14, read-out: AUCinf): 918 to 1030 ng·h/mL
C0 ([2]; 3 mg/kg, Group 3 (3 mg/kg), range over sexes and Days 1 and 14): 23000 to 41900 ng/mL
AUC(0-inf) ([2]; 3 mg/kg, Group 3 (3 mg/kg), range over sexes and Days 1 and 14, read-out: AUCinf): 2280 to 3380 ng·h/mL
C0 ([2]; 10 mg/kg, Group 4 (10 mg/kg), range over sexes and Days 1 and 14): 92300 to 138000 ng/mL
AUC(0-inf) ([2]; 10 mg/kg, Group 4 (10 mg/kg), range over sexes and Days 1 and 14, read-out: AUCinf): 9130 to 10100 ng·h/mL
half-life ([2]; all groups, read-out: elimination half-life): 7 to 8 min
C0 [2, 6]: 11900 ng/mL
clearance [2, 6]: 18.1 mL/min/kg
AUC(0-inf) ([2]; iv, 1 mg/kg/day, IV 1.0 mg/kg/day, female, Day 1, read-out: AUC0-∞ (converted)): 918 ng·h/mL
half-life ([2]; iv, 1 mg/kg/day, IV 1.0 mg/kg/day, female, Day 1, read-out: T1/2): 7.33 min
Vd ([2]; iv, 1 mg/kg/day, IV 1.0 mg/kg/day, female, Day 1, read-out: Vz): 0.192 L/kg
C0 [2, 7]: 10900 ng/mL
clearance [2, 7]: 16.2 mL/min/kg
AUC(0-inf) ([2]; iv, 1 mg/kg/day, IV 1.0 mg/kg/day, female, Day 14, read-out: AUC0-∞ (converted)): 1030 ng·h/mL
half-life ([2]; iv, 1 mg/kg/day, IV 1.0 mg/kg/day, female, Day 14, read-out: T1/2): 7.11 min
Vd ([2]; iv, 1 mg/kg/day, IV 1.0 mg/kg/day, female, Day 14, read-out: Vz): 0.167 L/kg
